Legend:
human AT1R = human AT1R (Homo sapiens (Human), UniProt P30556); test: Counterscreen radioligand binding assay, displacement of 125I-[Sar1, Ile8]-Angiotensin II, hAT1R WT; settings: for inhibition at 1 µM / inhibition at 10 µM: 125I-[Sar1, Ile8]-Ang II, semi-quantitative score; for inhibition at 1 µM: compound at 1 μM, read-out: % Displaced radioligand at 1 μM; for inhibition at 10 µM: compound at 10 μM, read-out: % Displaced radioligand at 10 μM; for IC50: HEK-293 cell membranes, read-out: Binding affinity On hAT1R IC50
How it was run: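 Compounds displaced 0.05 nM 125I-[Sar1, Ile8]-Ang II from human AT1R in HEK-293 membranes (1 h, 25° C; Tris/MgCl2/EDTA/BSA buffer, pH 7.4). Readout was filtration and scintillation counting, with non-specific binding set by 10 μM [Sar1]-Ang II. Values are % displacement at 1 μM and […], or IC50 from eight-point four-parameter fits.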

human AT2R fused to Cb23 = human AT2R fused to Cb23 (Homo sapiens, UniProt P50052); test: Radioligand binding assay, displacement of 125I-[Sar1, Ile8]-Angiotensin II, hAT2R Cb23; settings: displacement of 125I-[Sar1, Ile8]-Angiotensin II, human AT2R fused to Cb23, HEK-293 cell membrane preparations; read-out: Binding affinity on hAT2R_Cb23 IC50
How it was run: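 Membranes from HEK-293 cells expressing human AT2R fused to Cb23 were incubated with 0.05 nM 125I-[Sar1, Ile8]-Angiotensin II in 100 μL buffer (50 mM Tris, 5 mM MgCl2, 1 mM EDTA, 0.1% BSA, pH 7.4) for one hour at 25° C. Ligands were tested as eight-point dose-response curves in duplicate, with C21 and Angiotensin II as references.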

human AT1R, sequence (P30556 whole entry): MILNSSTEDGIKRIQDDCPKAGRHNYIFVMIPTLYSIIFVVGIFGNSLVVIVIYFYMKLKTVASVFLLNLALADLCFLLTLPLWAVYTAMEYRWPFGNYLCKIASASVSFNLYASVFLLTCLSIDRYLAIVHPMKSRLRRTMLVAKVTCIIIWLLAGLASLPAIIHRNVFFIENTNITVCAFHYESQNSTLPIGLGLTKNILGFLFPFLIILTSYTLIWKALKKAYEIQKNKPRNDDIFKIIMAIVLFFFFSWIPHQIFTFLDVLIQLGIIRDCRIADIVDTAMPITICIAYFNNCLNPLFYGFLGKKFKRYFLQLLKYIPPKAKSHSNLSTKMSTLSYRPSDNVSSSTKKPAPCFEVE
human AT2R fused to Cb23, sequence (P50052 whole entry, looked up, the tested form may be a part): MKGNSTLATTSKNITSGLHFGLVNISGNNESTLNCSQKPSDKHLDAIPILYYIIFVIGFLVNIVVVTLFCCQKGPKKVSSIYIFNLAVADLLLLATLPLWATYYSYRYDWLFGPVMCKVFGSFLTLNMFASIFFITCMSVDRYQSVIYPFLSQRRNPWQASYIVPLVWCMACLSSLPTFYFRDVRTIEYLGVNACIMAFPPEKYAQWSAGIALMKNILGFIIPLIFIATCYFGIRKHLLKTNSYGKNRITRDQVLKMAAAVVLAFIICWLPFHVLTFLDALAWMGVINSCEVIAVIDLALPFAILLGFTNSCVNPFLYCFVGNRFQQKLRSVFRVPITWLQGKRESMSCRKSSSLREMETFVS

SMILES	inhibition at 1 µM (human AT1R) [%]	inhibition at 10 µM (human AT1R) [%]	IC50 (human AT1R) [µM]	IC50 (human AT2R fused to Cb23) [µM]
c1ccc2sc(CN3CCN(c4cc(OCC5CC5)ccc4-c4nn[nH]n4)CC3)nc2c1 [Compound A-54, 2-[[4-[5-(cyclo-propylmethoxy)-2-(2H-tetrazol-5-yl)-phenyl]piperazin-1-yl]methyl]-1,3-benzothiazole]	< 30	< 30	31	2.07
FC(F)COc1ccc(-c2nn[nH]n2)c(N2CCN(Cc3nc4ccccc4s3)CC2)c1 [Compound A-55, 2-[[4-[5-(2,2-difluoroethoxy)-2-(2H-tetrazol-5-yl)-phenyl]piperazin-1-yl]methyl]-1,3-benzothiazole]	< 30	< 30	39.7	2.27
c1ccc2sc(CN3CCN(c4cc(OC5CCCC5)ccc4-c4nn[nH]n4)CC3)nc2c1 [Compound A-57, 2-[[4-[5-(cyclo-pentoxy)-2-(2H-tetrazol-5-yl)-phenyl]piperazin-1-yl]methyl]-1,3-benzothiazole]	< 30	< 30	34.5	1.9
CCNc1ccc(-c2nn[nH]n2)c(N2CCN(Cc3nc4ccccc4s3)CC2)c1 [Compound A-59, 3-[4-(1,3-benzothi-azol-2-ylmethyl)-piperazin-1-yl]-N-ethyl-4-(2H-tetrazol-5-yl)aniline]	< 30	< 30	–	4.75
CC(C)Nc1ccc(-c2nn[nH]n2)c(N2CCN(Cc3nc4ccccc4s3)CC2)c1 [Compound A-60, 3-[4-(1,3-benzothiazol-2-ylmethyl)piperazin-1-yl]-N-isopropyl-4-(2H-tetrazol-5-yl)aniline]	< 30	< 30	–	3.46
c1ccc2sc(CN3CCN(c4cc(NC5CCCC5)ccc4-c4nn[nH]n4)CC3)nc2c1 [Compound A-64, 3-[4-(1,3-benzothi-azol-2-ylmethyl)-piperazin-1-yl]-N-cyclopentyl-4-(2H-tetrazol-5-yl)aniline]	< 30	< 30	39.7	1.56
c1ccc2sc(CN3CCN(c4cc(N5CCCCC5)ccc4-c4nn[nH]n4)CC3)nc2c1 [Compound A-65, 2-((4-(5-(piperidin-1-yl)-2-(2H-tetrazol-5-yl)phenyl)piperazin-1-yl)methyl) benzo[d]thiazole]	< 30	< 30	60.8	1.85
c1ccc2sc(CN3CCN(c4cc(N5CCOCC5)ccc4-c4nn[nH]n4)CC3)nc2c1 [Compound A-67, 4-[3-[4-(1,3-benzo-thiazol-2-ylmethyl)-piperazin-1-yl]-4-(2H-tetrazol-5-yl)-phenyl]morpholine]	< 30	< 30	–	7.11
COC1CC(Nc2ccc(-c3nn[nH]n3)c(N3CCN(Cc4nc5ccccc5s4)CC3)c2)C1 (stereo not drawn) [Compound A-68, 3-[4-(1,3-benzo-thiazol-2-ylmethyl)-piperazin-1-yl]-N-(3-methoxycyclo-butyl)-4-(2H-tetrazol-5-yl)aniline]	< 30	< 30	–	8.5
CC(C)Cc1ccc(-c2nn[nH]n2)c(N2CCN(Cc3nc(=O)c4cnn(C)c4[nH]3)CC2)c1 [Compound A-69, 6-[[4-[5-isobutyl-2-(2H-tetrazol-5-yl)-phenyl]piperazin-1-yl]methyl]-1-methyl-7H-pyr-azolo[3,4-d]pyrimi-din-4-one]	< 30	< 30	–	10.6
Cc1ccc2nc(CN3CCN(c4cc(CC(C)C)ccc4-c4nn[nH]n4)CC3)cc(=O)n2c1 [Compound A-70, 2-[[4-[5-isobutyl-2-(2H-tetrazol-5-yl)-phenyl]piperazin-1-yl]methyl]-7-methyl-pyrido[1,2-a]pyrimidin-4-one]	< 30	< 30	61.2	1.8

From patent US20240368133A1, “Compounds for the Treatment of Pain, in Particular, Neuropathic Pain, and/or Other Diseases or Disorders that are Associated with AT2R and/or AT2R Mediated Signaling” (Confo Therapeutics N.V., priority 2021, published 2024)
